Laboratory results from the NIST ThermoML archive (doi:10.1021/acs.jced.7b00221).
Numbers after ± are expanded uncertainties.

Assay: xn = mol fraction of the nth substance listed
Settings: 100 kPa, Liquid; for viscosity: Cone and plate viscometry; for mass density: Vibrating tube method

CCCCCCn1cc[n+](C)c1C.O=[N+]([O-])c1cn[n-]c1 [1-hexyl-2,3-dimethylimidazolium 4-nitropyrazolide] + CCCCCCCCCCCCCC[P+](CCCCCC)(CCCCCC)CCCCCC.O=S(=O)([N-]S(=O)(=O)C(F)(F)F)C(F)(F)F
Settings	mass density, x1 = 0.25 [kg/m3]	mass density, x1 = 0.501 [kg/m3]	mass density, x1 = 0.749 [kg/m3]	viscosity, x1 = 0.098 [mPa·s]	viscosity, x1 = 0.303 [mPa·s]	viscosity, x1 = 0.5 [mPa·s]	viscosity, x1 = 0.7 [mPa·s]	viscosity, x1 = 0.898 [mPa·s]
278.15 K	–	–	–	1280 ± 170	1562 ± 210	2212 ± 310	3692 ± 540	7584 ± 1200
283.15 K	1081.8 ± 12	1090.2 ± 12	1104.2 ± 12	871 ± 120	1040 ± 140	1418 ± 190	2223 ± 310	4009 ± 590
288.15 K	1078.2 ± 12	1086.7 ± 12	1100.5 ± 12	606 ± 78	707 ± 92	933 ± 120	1385 ± 190	2241 ± 320
293.15 K	1074.6 ± 12	1083.2 ± 12	1097 ± 12	434 ± 55	495 ± 63	636 ± 83	897 ± 120	1330 ± 180
295.15 K	1073.2 ± 12	1081.7 ± 12	1095.7 ± 12	–	–	–	–	–
298.15 K	1071.1 ± 12	1079.7 ± 12	1093.6 ± 12	319 ± 40	357 ± 45	447 ± 57	605 ± 78	830 ± 110
303.15 K	1067.5 ± 12	1076.2 ± 12	1090.3 ± 12	239 ± 30	264 ± 33	324 ± 41	422 ± 54	545 ± 70
308.15 K	1063.9 ± 12	1072.7 ± 12	1086.9 ± 12	184 ± 23	200 ± 25	240 ± 30	304 ± 38	373 ± 47
313.15 K	1060.4 ± 12	1069.3 ± 12	1083.5 ± 12	144 ± 18	154 ± 19	182 ± 22	223 ± 28	263 ± 33
318.15 K	1057 ± 12	1065.9 ± 12	1080.2 ± 12	115 ± 14	121 ± 15	142 ± 17	169 ± 21	192 ± 24
323.15 K	1053.5 ± 12	1062.6 ± 12	1077 ± 12	93 ± 11	97 ± 12	112 ± 14	131 ± 16	144 ± 18
328.15 K	1050 ± 12	1059.2 ± 12	1073.7 ± 12	–	–	–	–	–
333.15 K	1046.5 ± 12	1055.8 ± 12	1070.5 ± 12	–	–	–	–	–
338.15 K	1043 ± 12	1052.4 ± 12	1067.2 ± 12	–	–	–	–	–
343.15 K	1039.5 ± 12	1049 ± 12	1064 ± 12	–	–	–	–	–
348.15 K	1036.1 ± 12	1045.7 ± 12	1060.7 ± 12	–	–	–	–	–
353.15 K	1032.6 ± 12	1042.3 ± 12	1057.5 ± 12	–	–	–	–	–

CCCCCCn1cc[n+](C)c1.N#Cc1ccc[n-]1 [1-hexyl-3-methylimidazolium 2-cyanopyrrolide] + CCCCCCCCCCCCCC[P+](CCCCCC)(CCCCCC)CCCCCC.O=S(=O)([N-]S(=O)(=O)C(F)(F)F)C(F)(F)F
viscosity [mPa·s]
Settings	278.15 K	283.15 K	288.15 K	293.15 K	298.15 K	303.15 K	308.15 K	313.15 K	318.15 K	323.15 K
x1 = 0.1	1166 ± 160	806 ± 110	568 ± 73	410 ± 52	303 ± 38	229 ± 28	176 ± 22	138 ± 17	110 ± 13	89 ± 11
x1 = 0.2	1261 ± 170	867 ± 120	605 ± 78	435 ± 55	320 ± 40	241 ± 30	185 ± 23	145 ± 18	115 ± 14	93 ± 11
x1 = 0.3	1258 ± 170	851 ± 110	589 ± 76	419 ± 53	307 ± 39	230 ± 29	176 ± 22	137 ± 17	109 ± 13	87 ± 11
x1 = 0.399	1299 ± 180	876 ± 120	602 ± 78	426 ± 54	310 ± 39	231 ± 29	177 ± 22	137 ± 17	109 ± 13	88 ± 11
x1 = 0.499	1275 ± 170	846 ± 110	575 ± 75	404 ± 51	292 ± 37	216 ± 27	164 ± 20	127 ± 16	100 ± 12	81 ± 10
x1 = 0.6	1379 ± 190	905 ± 120	612 ± 80	423 ± 54	304 ± 38	224 ± 28	169 ± 21	130 ± 16	102 ± 12	82 ± 10
x1 = 0.7	1410 ± 190	910 ± 120	603 ± 79	416 ± 53	295 ± 37	216 ± 27	162 ± 20	125 ± 15	97 ± 12	78 ± 10
x1 = 0.8	1397 ± 190	877 ± 120	571 ± 74	387 ± 50	271 ± 34	196 ± 24	146 ± 18	112 ± 14	87 ± 11	69 ± 8
x1 = 0.9	1461 ± 200	893 ± 120	566 ± 74	374 ± 48	257 ± 32	183 ± 23	135 ± 17	101 ± 12	79 ± 10	62 ± 8
x1 = 1	1540 ± 210	902 ± 120	553 ± 72	355 ± 45	239 ± 30	167 ± 21	122 ± 15	91 ± 11	70 ± 9	55 ± 7
